Several values for one entry are separate records, joined by “and”; a condition that tells them apart may be missing. Equal entries are not always repeated. Toxic doses and inconclusive results are not listed. The calls were made as follows: active = survival T/C of 150% or more; inactive = T/C below 125% in these data. Square brackets hold non-standard residues; d marks the D form. Peptide text beside a SMILES is read from it. * marks the point of attachment. Nle = CCCC[CH](N)C(=O)O; Cbz = O=C(OCc1ccccc1)*
Tested on: P388 leukemia ip, CD2F1 mice, survival T/C
Assay: NCI In Vivo Anticancer Drug Screen. Data for tumor model P388 Leukemia (intraperitoneal) in CD2F1 (CDF1) mice
Conditions: endpoint: median survival time, higher = longer survival
How it was run: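 Mice carrying the transplanted tumor received test compound or vehicle. Survival was recorded in each group, and the value is the treated-group measurement divided by that of the vehicle-treated control group.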

[1] = dose: 100.0 mg/kg/injection, schedule: Q04DX003 (ip), vehicle: Klucel (hydroxypropylcellulose) (HPC)
[2] = dose: 200.0 mg/kg/injection, schedule: Q04DX003 (ip), vehicle: Klucel (hydroxypropylcellulose) (HPC)
[3] = dose: 400.0 mg/kg/injection, schedule: Q04DX003 (ip), vehicle: Klucel (hydroxypropylcellulose) (HPC)
[4] = dose: 12.5 mg/kg/injection, schedule: Q01DX005 (ip), vehicle: saline
[5] = dose: 25.0 mg/kg/injection, schedule: Q01DX005 (ip), vehicle: saline
[6] = dose: 50.0 mg/kg/injection, schedule: Q01DX005 (ip), vehicle: saline
[7] = dose: 100.0 mg/kg/injection, schedule: Q04DX003 (ip), vehicle: saline with Tween-80
[8] = dose: 200.0 mg/kg/injection, schedule: Q04DX003 (ip), vehicle: saline with Tween-80
[9] = dose: 400.0 mg/kg/injection, schedule: Q04DX003 (ip), vehicle: saline with Tween-80
[10] = dose: 50.0 mg/kg/injection, schedule: Q01DX005 (ip), vehicle: saline with Tween-80
[11] = dose: 100.0 mg/kg/injection, schedule: Q01DX005 (ip), vehicle: saline with Tween-80
[12] = dose: 200.0 mg/kg/injection, schedule: Q01DX005 (ip), vehicle: saline with Tween-80
[13] = dose: 50.0 mg/kg/injection, schedule: Q01DX009 (ip), vehicle: saline
[14] = dose: 100.0 mg/kg/injection, schedule: Q01DX009 (ip), vehicle: saline
[15] = dose: 50.0 mg/kg/injection, schedule: Q01DX009 (ip), vehicle: saline with Tween-80
[16] = dose: 100.0 mg/kg/injection, schedule: Q01DX009 (ip), vehicle: saline with Tween-80
[17] = dose: 400.0 mg/kg/injection, schedule: Q01DX009 (ip), vehicle: saline with Tween-80
[18] = dose: 25.0 mg/kg/injection, schedule: Q01DX005 (ip), vehicle: saline with Tween-80
[19] = dose: 60.0 mg/kg/injection, schedule: Q01DX005 (ip), vehicle: saline with Tween-80
[20] = dose: 120.0 mg/kg/injection, schedule: Q01DX005 (ip), vehicle: saline with Tween-80
[21] = dose: 240.0 mg/kg/injection, schedule: Q01DX005 (ip), vehicle: saline with Tween-80
[22] = dose: 200.0 mg/kg/injection, schedule: Q01DX009 (ip), vehicle: saline with Tween-80
[23] = dose: 50.0 mg/kg/injection, schedule: Q04DX003 (ip), vehicle: saline with Tween-80

Measured: T/C

CC1CCCCN1c1cc2nc[nH]c(=O)c2cc1[N+](=O)[O-] (stereo not drawn)
inactive: [1] 108 % of control | [2] 99 % of control | [3] 100 % of control

C[n+]1cc2ccccc2c2ccccc21
inactive: dose: 3.13 mg/kg/injection, schedule: Q01DX009 (ip), vehicle: saline 108 % of control | dose: 6.25 mg/kg/injection, schedule: Q01DX009 (ip), vehicle: saline 117 % of control | [4] 100 % of control | dose: 12.5 mg/kg/injection, schedule: Q01DX009 (ip), vehicle: saline 120 % of control | [5] 110 % of control | dose: 25.0 mg/kg/injection, schedule: Q01DX009 (ip), vehicle: water 122 % of control | [6] 101 % of control | dose: 50.0 mg/kg/injection, schedule: Q01DX009 (ip), vehicle: water 113 % of control

Clc1c2c(c(Cl)c3c1=Nc1ccc4ccccc4c1S3)=Nc1ccc3ccccc3c1S2
inactive: [7] 107 % of control | [8] 113 % of control | [9] 115 % of control

CCCCC(NC(=O)C(Cc1ccccc1)NC(=O)OCc1ccccc1)C(=O)O (stereo not drawn) (Cbz-Phe-[Nle]-OH; configuration not given here)
inactive: [10] 104 % of control | [11] 105 % of control | [12] 97 % of control

[Cl][Co][Cl].[NH-]CC[N-]CC[N-]CC[NH-]
inactive: [4] 100 % of control | [5] 104 % of control | [6] 114 % of control and 107 % of control and 113 % of control | [13] 102 % of control | dose: 100.0 mg/kg/injection, schedule: Q01DX005 (ip), vehicle: saline 109 % of control | [14] 100 % of control

NC(=O)SCC(N)C(=O)O (stereo not drawn)
inactive: [15] 111 % of control | [13] 108 % of control | dose: 50.0 mg/kg/injection, schedule: Q01DX009 (ip), vehicle: suspension in saline 108 % of control | [16] 114 % of control and 119 % of control | dose: 100.0 mg/kg/injection, schedule: Q01DX009 (ip), vehicle: suspension in saline 121 % of control | [17] 101 % of control | dose: 400.0 mg/kg/injection, schedule: Q01DX009 (ip), vehicle: saline 98 % of control and 93 % of control

Cc1ccc(C)c(S(=O)(=O)Nc2c([N+](=O)[O-])cc([N+](=O)[O-])c3ccccc23)c1
inactive: dose: 50.0 mg/kg/injection, schedule: Q04DX002 (ip), vehicle: saline with Tween-80 95 % of control | dose: 100.0 mg/kg/injection, schedule: Q04DX002 (ip), vehicle: saline with Tween-80 88 % of control

CN(C=O)COC(=O)c1ccccc1
inactive: dose: 31.25 mg/kg/injection, schedule: Q01DX005 (ip), vehicle: distilled water + Tween-80 104 % of control | dose: 62.5 mg/kg/injection, schedule: Q01DX005 (ip), vehicle: distilled water + Tween-80 96 % of control | dose: 125.0 mg/kg/injection, schedule: Q01DX005 (ip), vehicle: distilled water + Tween-80 93 % of control | dose: 250.0 mg/kg/injection, schedule: Q01DX005 (ip), vehicle: distilled water + Tween-80 104 % of control

Cc1ccc(S(=O)(=O)N/N=C2/CCCC(S(=O)(=O)c3ccc(C)cc3)C2)cc1 (stereo not drawn)
inactive: [18] 111 % of control | [10] 98 % of control | [11] 93 % of control

C/C(=N\N=C(/[Se])N1CCN(c2ccc(F)cc2)CC1)c1ccccn1
inactive: [1] 101 % of control | [2] 108 % of control | [3] 100 % of control

CCC[CH2][Sn]([CH2]CCC)([N]=C=S)[N]=C=S
inactive: dose: 0.78 mg/kg/injection, schedule: Q01DX009 (ip), vehicle: saline 108 % of control | dose: 1.56 mg/kg/injection, schedule: Q01DX009 (ip), vehicle: saline 100 % of control | dose: 3.12 mg/kg/injection, schedule: Q01DX009 (ip), vehicle: saline 100 % of control

CC(C)N(c1nccc(F)n1)C(C)C
inactive: [18] 103 % of control | [10] 101 % of control | [11] 103 % of control | [12] 104 % of control

COc1cc(/C=N\N=c2\sc3ccccc3n2C)ccc1OCCO
inactive: [19] 92 % of control | [20] 91 % of control | [21] 91 % of control

CCOC(=O)COc1ccc(NC(C)=O)cc1
inactive: [19] 103 % of control | [20] 103 % of control | [21] 95 % of control

CCOC(=O)/C=C1\NC(=O)N(CCCCCCN2C(=O)N/C(=C\C(=O)OCC)C2=O)C1=O
inactive: [15] 101 % of control | [16] 93 % of control | [22] 93 % of control

O=S(=O)(O)CCC(O)S(=O)(=O)O (stereo not drawn)
inactive: dose: 60.0 mg/kg/injection, schedule: Q01DX005 (ip), vehicle: saline 102 % of control | dose: 120.0 mg/kg/injection, schedule: Q01DX005 (ip), vehicle: saline 108 % of control | dose: 240.0 mg/kg/injection, schedule: Q01DX005 (ip), vehicle: saline 94 % of control

c1ccc(C2(c3ccccc3)CCc3ccccc3O2)cc1
inactive: [1] 105 % of control | [2] 99 % of control | [3] 99 % of control

Cc1ccc(C2SCC(=O)N2CCN2C(=O)CSC2c2ccc(C)s2)s1 (stereo not drawn)
inactive: [10] 101 % of control | [11] 109 % of control | [12] 100 % of control

O=C1OC2(CCCC2)OC(=O)C1=C/C=C/c1ccc([N+](=O)[O-])o1
inactive: [23] 99 % of control | [7] 100 % of control and 114 % of control and 96 % of control | [8] 102 % of control and 112 % of control and 96 % of control | [9] 103 % of control and 121 % of control and 86 % of control | dose: 800.0 mg/kg/injection, schedule: Q04DX003 (ip), vehicle: saline with Tween-80 115 % of control

CCCCNC(=O)CCC
inactive: [15] 88 % of control | [16] 94 % of control | [22] 95 % of control | [17] 97 % of control

CCOP1(=S)NNP(=S)(OCC)NN1 (stereo not drawn)
inactive: dose: 50.0 mg/kg/injection, schedule: Q01DX005 (ip), vehicle: Klucel (hydroxypropylcellulose) (HPC) 96 % of control | dose: 100.0 mg/kg/injection, schedule: Q01DX005 (ip), vehicle: Klucel (hydroxypropylcellulose) (HPC) 93 % of control | dose: 200.0 mg/kg/injection, schedule: Q01DX005 (ip), vehicle: Klucel (hydroxypropylcellulose) (HPC) 104 % of control

CCCOP(=O)(NNP(=O)(OCCC)OCCC)OCCC
inactive: [15] 106 % of control | [16] 116 % of control | [22] 116 % of control

Cc1cc(C)c(N)c(Br)c1
inactive: dose: 6.25 mg/kg/injection, schedule: Q01DX009 (ip), vehicle: saline with Tween-80 118 % of control | dose: 12.5 mg/kg/injection, schedule: Q01DX009 (ip), vehicle: saline with Tween-80 113 % of control | dose: 12.5 mg/kg/injection, schedule: Q04DX003 (ip), vehicle: saline with Tween-80 100 % of control | dose: 25.0 mg/kg/injection, schedule: Q01DX009 (ip), vehicle: saline with Tween-80 100 % of control | dose: 25.0 mg/kg/injection, schedule: Q04DX003 (ip), vehicle: other 120 % of control | dose: 25.0 mg/kg/injection, schedule: Q04DX003 (ip), vehicle: saline with Tween-80 100 % of control | dose: 50.0 mg/kg/injection, schedule: Q04DX003 (ip), vehicle: other 120 % of control | [23] 95 % of control

O=[N+]([O-])c1ccc(/C=C\c2ccc(Cl)cc2S(=O)(=O)F)c(Cl)c1
inactive: [16] 95 % of control | [1] 117 % of control | [22] 100 % of control | [2] 103 % of control | [17] 104 % of control | [3] 112 % of control

CSc1cccc([N+](=O)[O-])c1
inactive: [14] 95 % of control | dose: 200.0 mg/kg/injection, schedule: Q01DX009 (ip), vehicle: saline 87 % of control

— PubChem BioAssay AID330 (DTP/NCI, 2004)
